The target in test [1] is human KEAP1 (N-term, residues 321-609) (Homo sapiens, UniProt Q14145). The experiment in a line: biochemical.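 Also: fluorescence polarization competition assay of Kelch domain binding to NRF2, 12-point 1:3 dilution series from 10 µM, read after 1 h at room temperature, floor 10 nM.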
The test system of test [2] is NQO1 mRNA in BEAS-2B cells. The experiment in a line: Beas2B NQO1 mRNA cell based assay. On the set-up: species or system human. The note with it: Homo sapiens, BEAS-2B, 24 h, 24 h compound treatment, increase in NQO1 mRNA vs vehicle (0.1% DMSO), read-out: EC50. In a few lines: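 Relative NQO1 transcript level derived by ΔΔCT with human β-actin as internal control, using direct-lysate one-step RT-qPCR. Cells were BEAS-2B, plated overnight then treated with compound for 24 h.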

Sequence of human KEAP1 (N-term, residues 321-609) (Q14145 321-609): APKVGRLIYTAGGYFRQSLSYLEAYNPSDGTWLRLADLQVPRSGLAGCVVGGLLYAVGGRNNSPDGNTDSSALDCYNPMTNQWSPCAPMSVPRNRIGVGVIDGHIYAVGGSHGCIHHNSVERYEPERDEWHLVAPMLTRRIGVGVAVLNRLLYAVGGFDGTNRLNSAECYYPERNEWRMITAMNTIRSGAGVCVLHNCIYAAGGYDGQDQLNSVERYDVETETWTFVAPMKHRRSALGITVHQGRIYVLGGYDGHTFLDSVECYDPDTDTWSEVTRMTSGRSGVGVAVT

As usually defined, the IC50 is the midpoint of a concentration-inhibition curve. Low readings indicate greater potency in that assay, high ones weaker potency in that assay. The EC50 is the concentration giving half of the maximal effect. The compound `C[C@]1(C(=O)O)CCCC[C@H]1C(=O)N1CCc2c(Cl)ccc(OCc3noc4ccccc34)c2[C@H]1CN1CCCC1=O` [Example 100, (1S,2R)-2-((S)-8-(benzo[d]isoxazol-3-ylmethoxy)-5-chloro-1-((2-oxopyrrolidin-1-yl)methyl)-1,2,3,4-tetrahydroisoquinoline-2-carbonyl)-1-methylcyclohexane-1-carboxylic acid] registered an IC50 in test [1] of 5.1 nM. In addition, the EC50 in test [2] turned out to be 3.4 nM.
`Cn1nnc(COc2ccc(Cl)c3c2[C@@H](CN2CCCC2=O)N(C(=O)C2CC(F)(F)CC2C(=O)O)CC3)c1C(F)F` (stereo partly drawn) [Example 101, 2-((S)-5-chloro-8-((5-(difluoromethyl)-1-methyl-1H-1,2,3-triazol-4-yl)methoxy)-1-((2-oxopyrrolidin-1-yl)methyl)-1,2,3,4-tetrahydroisoquinoline-2-carbonyl)-4,4-difluorocyclopentane-1-carboxylic acid] returned an IC50 in test [1] of 1900 nM. Also, in test [2], the EC50 was 710 nM.
With `Cn1nnc(COc2ccc(Cl)c3c2[C@@H](CN2CCCC2=O)N(C(=O)[C@@H]2CCC[C@]2(C)C(=O)O)CC3)c1C(F)F` [Example 102, (1S,2R)-2-((S)-5-chloro-8-((5-(difluoromethyl)-1-methyl-1H-1,2,3-triazol-4-yl)methoxy)-1-((2-oxopyrrolidin-1-yl)methyl)-1,2,3,4-tetrahydroisoquinoline-2-carbonyl)-1-methylcyclopentane-1-carboxylic acid], the IC50 in test [1] came out at 4.8 nM. In test [2], the EC50 was 1 nM.
In turn, `Cc1nnc(COc2ccc(Cl)c3c2[C@@H](CN2CCCC2=O)N(C(=O)[C@@H]2CCCC[C@@H]2C(=O)O)CC3)n1C` [Example 103, (1S,2R)-2-((S)-5-chloro-8-((4,5-dimethyl-4H-1,2,4-triazol-3-yl)methoxy)-1-((2-oxopyrrolidin-1-yl)methyl)-1,2,3,4-tetrahydroisoquinoline-2-carbonyl) cyclohexane-1-carboxylic acid] returned an IC50 in test [1] of 6.7 nM. Moreover, the half-maximal effective concentration (EC50) in test [2] stood at 67 nM.
In the same order, the values of `Cn1cc(COc2ccc(Cl)c3c2[C@@H](CN2CCCC2=O)N(C(=O)[C@@H]2CCCC[C@@H]2C(=O)O)CC3)nn1` [Example 104, (1S,2R)-2-((S)-5-Chloro-8-((1-methyl-1H-1,2,3-triazol-4-yl)methoxy)-1-((2-oxopyrrolidin-1-yl)methyl)-1,2,3,4-tetrahydroisoquinoline-2-carbonyl)cyclohexane-1-carboxylic acid] are 5.5 nM and 27 nM.
In turn, `Cn1nnc(COc2ccc(Cl)c3c2[C@@H](CN2CCCC2=O)N(C(=O)[C@@H]2CCCC[C@]2(F)C(=O)O)CC3)c1C(F)F` [Example 105, (1R,2S)-2-((S)-5-Chloro-8-((5-(difluoromethyl)-1-methyl-1H-1,2,3-triazol-4-yl)methoxy)-1-((2-oxopyrrolidin-1-yl)methyl)-1,2,3,4-tetrahydroisoquinoline-2-carbonyl)-1-fluorocyclohexane-1-carboxylic acid] yielded an IC50 in test [1] of 7.1 nM. Moreover, in test [2], the EC50 worked out at 24 nM.
Taken in the same sequence, the figures for `Cn1cc(COc2ccc(Cl)c3c2[C@@H](CN2CCCC2=O)N(C(=O)[C@@H]2CCCC[C@]2(C)C(=O)O)CC3)nn1` [Example 106, (1S,2R)-2-((S)-5-chloro-8-((1-methyl-1H-1,2,3-triazol-4-yl)methoxy)-1-((2-oxopyrrolidin-1-yl)methyl)-1,2,3,4-tetrahydroisoquinoline-2-carbonyl)-1-methylcyclohexane-1-carboxylic acid] were 5.1 nM and 2.9 nM.
Taken in the same sequence, the figures for `Cc1c(COc2ccc(Cl)c3c2[C@@H](CN2CCCC2=O)N(C(=O)[C@@H]2CCCC[C@]2(C)C(=O)O)CC3)nnn1C` [Example 107, (1S,2R)-2-((S)-5-Chloro-8-((1,5-dimethyl-1H-1,2,3-triazol-4-yl)methoxy)-1-((2-oxopyrrolidin-1-yl)methyl)-1,2,3,4-tetrahydroisoquinoline-2-carbonyl)-1-methylcyclohexane-1-carboxylic acid] were 6.6 nM and 0.35 nM.

The values are drawn from US12098148B2, “Therapeutic compounds” (C4X Discovery Limited, priority 2018, dated 2024).
